From ChEMBL document CHEMBL1151490, “Inhibition of farnesyl protein transferase by new farnesyl phosphonate derivatives of phenylalanine” (Bioorg Med Chem Lett, 1996)

Experiments:
Squalene synthase = target: T1, Squalene synthase (Rattus norvegicus, UniProt Q02769); experiment: Inhibition of squalene synthase from rat liver microsomes
T1 sequence (Q02769 whole entry): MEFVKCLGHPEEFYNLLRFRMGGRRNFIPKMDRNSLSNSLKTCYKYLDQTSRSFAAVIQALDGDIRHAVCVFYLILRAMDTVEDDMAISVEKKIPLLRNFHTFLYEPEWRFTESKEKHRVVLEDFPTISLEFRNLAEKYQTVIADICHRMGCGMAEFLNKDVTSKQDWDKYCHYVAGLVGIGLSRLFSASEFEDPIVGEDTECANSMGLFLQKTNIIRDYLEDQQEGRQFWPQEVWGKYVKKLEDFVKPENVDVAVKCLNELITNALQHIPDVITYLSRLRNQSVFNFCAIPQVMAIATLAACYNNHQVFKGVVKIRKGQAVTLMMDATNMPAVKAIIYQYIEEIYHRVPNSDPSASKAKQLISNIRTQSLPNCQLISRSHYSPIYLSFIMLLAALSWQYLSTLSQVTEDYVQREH

[1] = target: T2, Protein farnesyltransferase (Bos taurus, UniProt P29702+P49355); experiment: Inhibition of farnesyl protein transferase from bovine brain
[2] = target: T2, Protein farnesyltransferase; experiment: Inhibition of Farnesyltransferase from bovine brain

Row | SMILES | IC50 (Squalene synthase) | IC50 [1] | IC50 [2]
1 | CC(C)=CCC/C(C)=C/CC/C(C)=C/CC(CP(=O)(O)O)C(=O)N[C@@H](Cc1ccccc1)C(=O)O (some centres undefined) | 90 nM | 170 nM | 
2 | CC(C)=CCC/C(C)=C/CC/C(C)=C/CC(C(=O)N[C@H](Cc1ccccc1)C(=O)O)P(=O)(O)O (some centres undefined) | 500 nM | 980 nM | 
3 | CC(C)=CCC/C(C)=C/CC/C(C)=C/CC(C(=O)O)C(=O)NC(Cc1ccccc1)C(=O)O (centres undefined) | 2400 nM | 37000 nM | 
4 | CC(C)=CCC/C(C)=C/CC/C(C)=C/CC(CC(=O)N[C@@H](Cc1ccccc1)C(=O)O)P(=O)(O)O (some centres undefined) | 220 nM | 470 nM | 
5 | CC(C)=CCC/C(C)=C/CC/C(C)=C/CC(CCP(=O)(O)O)C(=O)N[C@@H](Cc1ccccc1)C(=O)O (some centres undefined) | 4200 nM | 10000 nM | 
6 | COC(=O)[C@H](Cc1ccccc1)NC(=O)C(C/C=C(\C)CC/C=C(\C)CCC=C(C)C)P(=O)(O)O (some centres undefined) | 1400 nM | > 100000 nM | 
7 | CC(C)=CCC/C(C)=C/CC/C(C)=C/C(O)P(=O)(O)O (centres undefined) | 2300 nM | 410 nM | 
8 | CC(C)=CCC/C(C)=C/CCCC(P(=O)(O)O)P(=O)(O)O [SQ-34919] |  |  | 80000 nM
9 | CC(C)=CCC/C(C)=C/CC/C(C)=C/CC(C(=O)NCCc1ccccc1)P(=O)(O)O (centres undefined) | 480 nM | 13000 nM | 
10 | CC(C)=CCC/C(C)=C/CC/C(C)=C/CC(C(=O)N[C@@H](Cc1ccccc1)C(=O)O)P(=O)(O)O (some centres undefined) | 1300 nM | 80 nM | 
